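Exposure lasted 48 hours, with cells grown in 96-well plates and compounds tested at five concentrations. GI50: concentration for 50% inhibition of growth. TGI: total growth inhibition.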
Columns and labels:
Experiment in all cases: NCI-60 cell line screen, 48 h
[1] = tested on: 786-0 renal
[2] = tested on: A498 renal
[3] = tested on: A549 NSCLC
[4] = tested on: ACHN renal
[5] = tested on: BT-549 breast
[6] = tested on: CAKI-1 renal
[7] = tested on: CCRF-CEM leukemia
[8] = tested on: COLO 205 colon
[9] = tested on: DU-145 prostate
[10] = tested on: EKVX NSCLC
[11] = tested on: HCC-2998 colon
[12] = tested on: HCT-116 colon
[13] = tested on: HCT-15 colon
[14] = tested on: HL-60(TB) leukemia
[15] = tested on: HOP-62 NSCLC
[16] = tested on: HOP-92 NSCLC
[17] = tested on: HS 578T breast
[18] = tested on: HT29 colon
[19] = tested on: IGROV1 ovarian
[20] = tested on: K-562 leukemia
[21] = tested on: KM12 colon
[22] = tested on: LOX IMVI melanoma
[23] = tested on: M14 melanoma
[24] = tested on: MCF7 breast
[25] = tested on: MDA-MB-231 breast
[26] = tested on: MDA-MB-435
[27] = tested on: MOLT-4 leukemia
[28] = tested on: NCI-H226 lung
[29] = tested on: NCI-H23 lung
[30] = tested on: NCI-H460 lung
[31] = tested on: NCI-H522 lung
[32] = tested on: NCI/ADR-RES ovarian
[33] = tested on: OVCAR-3 ovarian
[34] = tested on: OVCAR-4 ovarian
[35] = tested on: OVCAR-5 ovarian
[36] = tested on: OVCAR-8 ovarian
[37] = tested on: PC-3 prostate
[38] = tested on: RPMI-8226 leukemia
[39] = tested on: RXF 393 renal
[40] = tested on: SF-268 CNS
[41] = tested on: SF-295 CNS
[42] = tested on: SF-539 CNS
[43] = tested on: SK-MEL-2 melanoma
[44] = tested on: SK-MEL-28 melanoma
[45] = tested on: SK-MEL-5 melanoma
[46] = tested on: SK-OV-3 ovarian
[47] = tested on: SN12C renal
[48] = tested on: SNB-19 CNS
[49] = tested on: SNB-75 CNS
[50] = tested on: SR leukemia
[51] = tested on: SW-620 colon
[52] = tested on: T-47D breast
[53] = tested on: TK-10 renal
[54] = tested on: U251 CNS
[55] = tested on: UACC-257 melanoma
[56] = tested on: UACC-62 melanoma
[57] = tested on: UO-31 renal

Compound `NC(N)=N/N=C/c1c(-c2ccncc2)nc2sc(Cl)cn12` has a GI50 [1] of 6.63 µM, a TGI [1] of 17 µM and a GI50 [2] of 17.4 µM. The TGI [2] was 41.2 µM, the GI50 [3] was 20.2 µM and the TGI [3] was 40.4 µM. It also gave a GI50 [4] of 9.28 µM, a TGI [4] of 24.5 µM and a GI50 [5] of 10.3 µM. It also gave a TGI [5] of 27.8 µM, a GI50 [6] of 18.1 µM and a TGI [6] of 34.7 µM. For the same compound, the GI50 [7] was 2 µM, the TGI [7] was 4.58 µM and the GI50 [8] was 4.21 µM. The GI50 [9] was 17.5 µM, the TGI [9] was 33.3 µM and the GI50 [10] was 21 µM. It also gave a TGI [10] of 39.2 µM, a GI50 [11] of 3.29 µM and a TGI [11] of 9.36 µM. For the same compound, the GI50 [12] was 2.55 µM, the TGI [12] was 6.22 µM and the GI50 [13] was 17.6 µM. The TGI [13] was 36.3 µM, the GI50 [14] was 19 µM and the TGI [14] was 45 µM. It also gave a GI50 [15] of 15.2 µM, a TGI [15] of 37.2 µM and a GI50 [16] of 1.43 µM. For the same compound, the TGI [16] was 4.63 µM, the GI50 [17] was 18.8 µM and the TGI [17] was 41.7 µM. The GI50 [18] was 17.1 µM, the TGI [18] was greater than 51.3 µM and the GI50 [19] was 42.7 µM. For the same compound, the TGI [19] was greater than 100 µM, the GI50 [20] was 2.96 µM and the TGI [20] was 13.3 µM. The GI50 [21] was 2.48 µM, the TGI [21] was 10.8 µM and the GI50 [22] was 3.03 µM. The TGI [22] was 9.55 µM, the GI50 [23] was 6.54 µM and the TGI [23] was 14.7 µM. For the same compound, the GI50 [24] was 5.19 µM, the TGI [24] was greater than 94.2 µM and the GI50 [25] was 1.58 µM. The TGI [25] was 3.6 µM, the GI50 [26] was 6.63 µM and the TGI [26] was 13.6 µM. The GI50 [27] was 2.83 µM, the TGI [27] was 7.26 µM and the GI50 [28] was 3.98 µM. The TGI [28] was 15.2 µM, the GI50 [29] was 10 µM and the TGI [29] was 24.1 µM. For the same compound, the GI50 [30] was 27.5 µM, the TGI [30] was greater than 59.2 µM and the GI50 [31] was 10.1 µM. It also gave a TGI [31] greater than 28.5 µM, a GI50 [32] of 35.5 µM and a TGI [32] greater than 100 µM. The GI50 [33] was 5.55 µM, the TGI [33] was 11.6 µM and the GI50 [34] was 1.57 µM. It also gave a TGI [34] of 6.16 µM, a GI50 [35] of 7.1 µM and a TGI [35] of 21.4 µM. It also gave a GI50 [36] of 15.2 µM, a TGI [36] of 36.4 µM and a GI50 [37] of 5.8 µM. It also gave a TGI [37] of 18.8 µM, a GI50 [38] of 6.52 µM and a TGI [38] of 21.1 µM. It also gave a GI50 [39] of 15.2 µM, a TGI [39] of 33.2 µM and a GI50 [40] of 5.31 µM. It also gave a TGI [40] of 15.3 µM, a GI50 [41] of 13.5 µM and a TGI [41] of 33.7 µM. The GI50 [42] was 7.06 µM, the TGI [42] was 13.7 µM and the GI50 [43] was 11.8 µM. For the same compound, the TGI [43] was greater than 33.7 µM, the GI50 [44] was 14.3 µM and the TGI [44] was 38.8 µM. The GI50 [45] was 18.1 µM, the TGI [45] was 36.2 µM and the GI50 [46] was 22.4 µM. For the same compound, the TGI [46] was 48.1 µM, the GI50 [47] was 2.59 µM and the TGI [47] was 8.58 µM. For the same compound, the GI50 [48] was 7.62 µM, the TGI [48] was greater than 20.6 µM and the GI50 [49] was 4.89 µM. For the same compound, the TGI [49] was 18.9 µM, the GI50 [50] was 2.24 µM and the TGI [50] was 4.97 µM. It also gave a GI50 [51] of 7.34 µM, a TGI [51] of 18 µM and a GI50 [52] of 28.6 µM. The TGI [52] was 56.6 µM, the GI50 [53] was 5.26 µM and the TGI [53] was 10.9 µM. For the same compound, the GI50 [54] was 1.94 µM, the TGI [54] was 3.93 µM and the GI50 [55] was 21.5 µM. For the same compound, the TGI [55] was 40.6 µM, the GI50 [56] was 1.88 µM and the TGI [56] was 4.91 µM. The GI50 [57] was 8.93 µM and the TGI [57] was greater than 22.7 µM.
